For test [1], the target named is T1, Voltage-dependent L-type calcium channel subunit alpha-1C (Rattus norvegicus, UniProt P22002). Briefly: (§1) Inhibition of L-type calcium channel measured using whole-cell patch clamp in rat ventricular myocytes. The class given is functional, cell-based, Heart, Ventricular myocyte. On the set-up: ca sol conc 2 mM, temp 22-23 C.
In test [2] the target is T2, Voltage-dependent L-type calcium channel subunit alpha-1C (Cavia porcellus, UniProt O35505). As to the kind of experiment: (§2) Inhibition of L-type calcium channel measured using whole-cell patch clamp in guinea pig ventricular myocytes. The class given is functional, cell-based, Heart, Ventricular myocyte. On the set-up: ca sol conc 1.8 mM, temp 20-22 C.
Test [3] deals with T2, Voltage-dependent L-type calcium channel subunit alpha-1C. The test is described as §2. Format: functional, cell-based, Heart, Ventricular myocyte. On the set-up: ca sol conc 1.8 mM, temp 20-22 C. The source holds these as a separate data set.
The target of test [4] is T3, Voltage-dependent L-type calcium channel subunit alpha-1C (Homo sapiens, UniProt Q13936). Briefly: (§3) Inhibition of L-type calcium channel measured using […] kidney cells heterologically expressing alpha-1C subunit. The class given is functional, cell-based, HEK293. On the set-up: ca sol conc 10 mM, temp room.
T3 sequence (Q13936 whole entry): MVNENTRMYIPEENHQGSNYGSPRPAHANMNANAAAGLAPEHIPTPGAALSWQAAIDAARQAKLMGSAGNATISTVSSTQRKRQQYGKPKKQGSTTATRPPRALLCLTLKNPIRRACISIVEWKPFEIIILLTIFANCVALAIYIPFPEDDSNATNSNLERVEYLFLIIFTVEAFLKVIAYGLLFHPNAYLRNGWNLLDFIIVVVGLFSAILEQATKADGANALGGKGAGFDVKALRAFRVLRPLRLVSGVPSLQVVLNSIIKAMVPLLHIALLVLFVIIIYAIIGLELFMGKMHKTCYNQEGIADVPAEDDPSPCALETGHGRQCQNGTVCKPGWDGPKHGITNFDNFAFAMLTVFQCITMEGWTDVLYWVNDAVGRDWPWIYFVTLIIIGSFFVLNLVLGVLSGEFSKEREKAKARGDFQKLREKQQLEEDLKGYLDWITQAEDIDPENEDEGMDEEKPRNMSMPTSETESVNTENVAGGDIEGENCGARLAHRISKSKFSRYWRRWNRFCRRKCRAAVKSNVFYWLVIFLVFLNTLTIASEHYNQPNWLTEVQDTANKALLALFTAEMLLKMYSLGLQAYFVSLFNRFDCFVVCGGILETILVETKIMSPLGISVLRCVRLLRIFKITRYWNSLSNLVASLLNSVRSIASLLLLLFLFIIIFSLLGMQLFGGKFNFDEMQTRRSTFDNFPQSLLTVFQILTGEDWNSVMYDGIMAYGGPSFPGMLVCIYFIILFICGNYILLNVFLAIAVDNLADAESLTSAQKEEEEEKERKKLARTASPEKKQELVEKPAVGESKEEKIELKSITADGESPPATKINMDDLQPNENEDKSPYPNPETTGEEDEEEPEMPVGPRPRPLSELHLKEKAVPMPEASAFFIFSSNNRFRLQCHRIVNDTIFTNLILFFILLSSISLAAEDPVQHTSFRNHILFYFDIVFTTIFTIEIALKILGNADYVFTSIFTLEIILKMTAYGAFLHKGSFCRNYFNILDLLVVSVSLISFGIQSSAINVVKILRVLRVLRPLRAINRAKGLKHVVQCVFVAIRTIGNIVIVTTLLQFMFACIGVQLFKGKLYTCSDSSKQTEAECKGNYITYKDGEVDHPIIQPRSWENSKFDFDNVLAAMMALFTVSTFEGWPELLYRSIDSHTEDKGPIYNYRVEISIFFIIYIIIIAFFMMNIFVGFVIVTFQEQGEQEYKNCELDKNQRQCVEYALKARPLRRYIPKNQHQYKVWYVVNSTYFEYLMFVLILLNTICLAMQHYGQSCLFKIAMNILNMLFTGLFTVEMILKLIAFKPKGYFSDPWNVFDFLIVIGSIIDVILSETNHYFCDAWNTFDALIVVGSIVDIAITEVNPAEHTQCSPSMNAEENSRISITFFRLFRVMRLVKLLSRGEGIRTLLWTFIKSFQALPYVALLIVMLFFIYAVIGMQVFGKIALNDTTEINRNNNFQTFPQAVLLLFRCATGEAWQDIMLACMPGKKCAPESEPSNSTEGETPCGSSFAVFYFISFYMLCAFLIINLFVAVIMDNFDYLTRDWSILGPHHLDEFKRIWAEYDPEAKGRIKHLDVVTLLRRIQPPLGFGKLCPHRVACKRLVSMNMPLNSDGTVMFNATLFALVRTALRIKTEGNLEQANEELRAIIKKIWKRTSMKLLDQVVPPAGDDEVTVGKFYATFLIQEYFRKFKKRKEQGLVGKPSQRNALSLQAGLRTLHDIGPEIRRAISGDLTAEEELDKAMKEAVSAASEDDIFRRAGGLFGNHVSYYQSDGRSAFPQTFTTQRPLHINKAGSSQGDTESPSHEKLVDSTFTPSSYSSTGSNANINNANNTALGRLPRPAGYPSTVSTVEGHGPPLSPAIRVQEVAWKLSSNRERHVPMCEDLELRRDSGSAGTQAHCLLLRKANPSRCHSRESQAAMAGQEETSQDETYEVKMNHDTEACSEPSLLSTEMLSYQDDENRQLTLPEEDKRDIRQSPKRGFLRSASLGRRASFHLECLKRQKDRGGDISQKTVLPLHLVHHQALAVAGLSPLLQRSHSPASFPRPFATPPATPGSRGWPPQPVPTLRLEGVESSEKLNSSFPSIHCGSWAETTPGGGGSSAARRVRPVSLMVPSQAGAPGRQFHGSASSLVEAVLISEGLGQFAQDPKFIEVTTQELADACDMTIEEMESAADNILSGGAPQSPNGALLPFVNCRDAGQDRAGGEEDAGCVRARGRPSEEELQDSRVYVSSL
Test [5] has as its target T2, Voltage-dependent L-type calcium channel subunit alpha-1C. The description is as §2. Format: functional, cell-based, Heart, Ventricular myocyte. On the set-up: ca sol conc 1.8 mM, temp room.
Test [6] addresses T3, Voltage-dependent L-type calcium channel subunit alpha-1C. Described as §3. Format: functional, cell-based, HEK293. On the set-up: ca sol conc 0 mM, temp 21-24 C.
Test [7] has as its target T2, Voltage-dependent L-type calcium channel subunit alpha-1C. The description is as §2. The class given is functional, cell-based, Heart, Ventricular myocyte. On the set-up: ca sol conc 0 mM, temp 36 C.
For test [8] the target is unchanged. Described as §2. Format: functional, cell-based, Heart, Ventricular myocyte. On the set-up: ca sol conc 2 mM, temp 35.5-36.5 C.
Test [9] has the same target. Described as §2. On the set-up: ca sol conc 1.8 mM, temp 36 C. The class given is functional, cell-based, Heart, Ventricular myocyte.
The target is the same in test [10]. The test is described as §2. The class given is functional, cell-based, Heart, Ventricular myocyte. On the set-up: ca sol conc None mM, temp 36 C.
The target is the same in test [11]. The description is as §2. On the set-up: ca sol conc 1.8 mM, temp 36-37 C. The class given is functional, cell-based, Heart, Ventricular myocyte.
The target in test [12] is T1, Voltage-dependent L-type calcium channel subunit alpha-1C. The test is described as §1. Format: functional, cell-based, Heart, Ventricular myocyte. On the set-up: ca sol conc 1 mM, temp 20-24 C.
Test [13] shares this target. Described as §1. Format: functional, cell-based, Heart, Ventricular myocyte. On the set-up: ca sol conc 2 mM, temp room.
Test [14] has as its target T3, Voltage-dependent L-type calcium channel subunit alpha-1C. As to the kind of experiment: (§4) Inhibition of L-type calcium channel measured using 2-electrode voltage-clamp in Xenopus oocyte heterologically expressing alpha-1C subunit. Format: functional, cell-based. On the set-up: ca sol conc 0 mM, temp room.
For test [15] the target is unchanged. The test is described as §4. Format: functional, cell-based. On the set-up: ca sol conc 0 mM, temp room. This is another data set of the same source.
Test [16] shares this target. As to the kind of experiment: Inhibition of L-type calcium channel measured using […] ovary cells heterologically expressing alpha-1C subunit. Format: functional, cell-based, Cricetulus griseus, CHO. On the set-up: ca sol conc 0 mM, temp room.
The target in test [17] is T1, Voltage-dependent L-type calcium channel subunit alpha-1C. The description is as §1. On the set-up: ca sol conc 1 mM, temp 1 C. The class given is functional, cell-based, Heart, Ventricular myocyte.
Test [18] has as its target T3, Voltage-dependent L-type calcium channel subunit alpha-1C. Described as §3. Format: functional, cell-based, HEK293. On the set-up: ca sol conc 0 mM, temp 37 C.
Test [19] shares this target. The test is described as §3. The class given is functional, cell-based, HEK293. On the set-up: ca sol conc 0 mM, temp 20-25 C.
The target is the same in test [20]. The description is as §3. The class given is functional, cell-based, HEK293. On the set-up: ca sol conc 0 mM, temp 21-24 C. This is another data set of the same source.
The target is the same in test [21]. The test is described as §3. The class given is functional, cell-based, HEK293. On the set-up: ca sol conc 0 mM, temp room.
For test [22] the target is unchanged. Described as §3. The class given is functional, cell-based, HEK293. On the set-up: ca sol conc 0 mM, temp room. This is another data set of the same source.
Test [23] deals with T1, Voltage-dependent L-type calcium channel subunit alpha-1C. The test is described as §1. The class given is functional, cell-based, Heart, Ventricular myocyte. On the set-up: ca sol conc 0 mM, temp room.
Test [24] shares this target. The description is as §1. Format: functional, cell-based, Heart, Ventricular myocyte. On the set-up: ca sol conc 1.8 mM, temp room.
The target of test [25] is T3, Voltage-dependent L-type calcium channel subunit alpha-1C. The test is described as §4. On the set-up: ca sol conc 0 mM, temp room. The class given is functional, cell-based. The source holds these as a separate data set.

T1 sequence (P22002 whole entry): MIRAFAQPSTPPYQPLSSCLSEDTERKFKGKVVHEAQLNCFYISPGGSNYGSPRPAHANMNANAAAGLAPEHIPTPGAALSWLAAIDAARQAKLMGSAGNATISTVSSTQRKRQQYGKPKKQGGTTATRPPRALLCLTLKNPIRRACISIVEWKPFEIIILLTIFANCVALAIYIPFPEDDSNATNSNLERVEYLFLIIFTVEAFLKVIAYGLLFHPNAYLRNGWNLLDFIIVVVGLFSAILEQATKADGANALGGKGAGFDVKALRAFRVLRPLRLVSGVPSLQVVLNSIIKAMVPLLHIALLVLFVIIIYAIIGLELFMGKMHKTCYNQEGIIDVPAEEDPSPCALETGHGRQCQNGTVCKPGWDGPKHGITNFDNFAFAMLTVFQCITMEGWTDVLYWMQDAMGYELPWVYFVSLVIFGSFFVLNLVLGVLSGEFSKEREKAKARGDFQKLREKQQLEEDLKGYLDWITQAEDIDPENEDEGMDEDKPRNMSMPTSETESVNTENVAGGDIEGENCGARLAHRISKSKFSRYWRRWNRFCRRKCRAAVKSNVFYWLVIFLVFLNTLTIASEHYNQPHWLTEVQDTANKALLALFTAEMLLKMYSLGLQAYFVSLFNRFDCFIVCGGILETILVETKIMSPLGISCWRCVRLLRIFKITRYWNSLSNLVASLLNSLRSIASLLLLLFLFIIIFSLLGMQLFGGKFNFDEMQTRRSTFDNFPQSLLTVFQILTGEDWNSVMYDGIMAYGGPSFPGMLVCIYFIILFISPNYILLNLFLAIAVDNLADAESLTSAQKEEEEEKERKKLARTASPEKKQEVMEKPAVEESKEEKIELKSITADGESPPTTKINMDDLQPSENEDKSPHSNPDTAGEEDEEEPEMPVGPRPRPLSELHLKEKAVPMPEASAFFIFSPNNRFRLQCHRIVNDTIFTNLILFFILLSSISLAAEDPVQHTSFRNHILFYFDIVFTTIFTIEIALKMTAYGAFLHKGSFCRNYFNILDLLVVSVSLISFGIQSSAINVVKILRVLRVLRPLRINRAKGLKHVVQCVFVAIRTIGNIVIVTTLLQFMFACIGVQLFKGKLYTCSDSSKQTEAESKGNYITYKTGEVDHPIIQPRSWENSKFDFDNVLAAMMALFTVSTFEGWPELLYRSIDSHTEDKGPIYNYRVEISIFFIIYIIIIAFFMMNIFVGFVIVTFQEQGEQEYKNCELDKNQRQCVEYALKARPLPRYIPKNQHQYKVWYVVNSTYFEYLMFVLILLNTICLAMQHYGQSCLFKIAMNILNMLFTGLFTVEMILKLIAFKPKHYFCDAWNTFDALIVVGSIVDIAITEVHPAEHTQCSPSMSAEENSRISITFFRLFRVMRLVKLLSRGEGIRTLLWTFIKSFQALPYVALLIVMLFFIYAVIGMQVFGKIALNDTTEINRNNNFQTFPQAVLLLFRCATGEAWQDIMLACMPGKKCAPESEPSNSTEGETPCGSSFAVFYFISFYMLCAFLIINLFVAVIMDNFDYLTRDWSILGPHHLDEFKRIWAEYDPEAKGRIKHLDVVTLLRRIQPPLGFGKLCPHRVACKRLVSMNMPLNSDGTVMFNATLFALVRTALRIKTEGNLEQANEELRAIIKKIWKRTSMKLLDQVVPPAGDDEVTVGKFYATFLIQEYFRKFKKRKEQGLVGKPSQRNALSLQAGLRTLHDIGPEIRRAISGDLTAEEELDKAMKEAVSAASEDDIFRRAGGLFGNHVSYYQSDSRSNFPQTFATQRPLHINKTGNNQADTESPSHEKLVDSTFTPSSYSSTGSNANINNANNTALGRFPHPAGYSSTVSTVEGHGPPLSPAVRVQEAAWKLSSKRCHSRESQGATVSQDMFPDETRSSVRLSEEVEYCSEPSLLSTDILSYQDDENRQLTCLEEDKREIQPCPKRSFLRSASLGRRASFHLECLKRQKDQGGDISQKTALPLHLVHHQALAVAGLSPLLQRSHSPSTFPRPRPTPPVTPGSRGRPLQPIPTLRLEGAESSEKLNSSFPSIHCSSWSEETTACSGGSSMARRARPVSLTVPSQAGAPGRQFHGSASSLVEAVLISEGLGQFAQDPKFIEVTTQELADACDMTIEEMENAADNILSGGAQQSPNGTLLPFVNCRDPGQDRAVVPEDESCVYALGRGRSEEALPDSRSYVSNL

On to `CCN(CC)CCCC(C)Nc1c2ccc(Cl)cc2nc2ccc(OC)cc12` (stereo not given) [QUINACRINE], for which, in [1], the IC50 was 5.2 µM.
For the compound `CC(C)COCC(CN(Cc1ccccc1)c1ccccc1)N1CCCC1` (stereo not given) [BEPRIDIL], the IC50 in test [2] is 2.6 µM; in [3] it was 0.5 µM.
Consider `O=C1NC(=O)C(c2ccccc2)(c2ccccc2)N1` [PHENYTOIN], for which, in test [4], the IC50 was 125 µM.
Take `Clc1ccccc1C(c1ccccc1)(c1ccccc1)n1ccnc1` [CLOTRIMAZOLE]: the IC50 in test [5] is 20 µM; in test [6], 0.59 µM.
On to `Cc1cccc(C)c1N(CCCc1cccnc1)C(=O)[C@@H](C)N`, for which, in test [7], the IC50 was 55 µM.
In the case of `CN1CCCC(n2nc(Cc3ccc(Cl)cc3)c3ccccc3c2=O)CC1` (stereo not given) [AZELASTINE], in test [8], the IC50 came to 20.2 µM.
On to `Cc1cccc(CCN2CCC(C(=O)c3ccc(NS(C)(=O)=O)cc3)CC2)n1`, for which, in test [3], the IC50 amounted to 441 µM.
As for `COC(=O)C1=C(C)NC(C)=C(C(=O)OCC(C)C)C1c1ccccc1[N+](=O)[O-]` (stereo not given) [NISOLDIPINE], the figures for the IC50 in test [9] and in test [10] were 0.08 µM and 0.73 µM, respectively.
`C=CCN1CCN(CC(C)(C)COC(=O)C2=C(C)NC(C)=C(C(=O)OC)C2c2cccc([N+](=O)[O-])c2)CC1` (stereo not given) [IGANIDIPINE]: the IC50 in test [11] was 0.009 µM.
As for `CN(C)CCC=C1c2ccccc2CCc2ccccc21` [AMITRIPTYLINE], the IC50 stood at 23.2 µM in test [12] and 3.75 µM in test [13].
In the case of `CCCC(=O)N1CCCN(c2nc(N)c3cc(OC)c(OC)cc3n2)CC1` [BUNAZOSIN], the IC50 in test [11] came to 60 µM.
On to `COC(=O)C1=C(C)NC(C)=C(C(=O)O[C@H]2CCN(Cc3ccccc3)C2)[C@H]1c1cccc([N+](=O)[O-])c1` [BARNIDIPINE], for which the values for the IC50 in test [14] and in test [15] were 3.1 µM and 1.2 µM, respectively.
For `CC1=C(C(=O)OCCCCCCCCCC[N+](C)(C)C)C(c2cccc3nonc23)C(C(=O)OC(C)C)=C(C)N1` (stereo not given), the IC50 in test [16] worked out at 0.07 µM.
Turning to `COc1ccc(C(C)=O)c(O)c1` [PAEONOL], the IC50 in test [17] was determined as 561 µM.
Take `CN(C)CCCC1(c2ccc(F)cc2)OCc2cc(C#N)ccc21` (stereo not given) [CITALOPRAM]: the half-maximal inhibitory concentration (IC50) in test [12] was 64.5 µM.
With `C[C@]12CC[C@@H]3c4ccc(O)cc4CC[C@H]3[C@@H]1CC[C@@H]2O` [ESTRADIOL], the IC50 in [18] came out at 50 µM.
With `COc1ccc(CCN(C)CCCC(C#N)(c2cc(OC)c(OC)c(OC)c2)C(C)C)cc1OC` (stereo not given) [GALLOPAMIL], the concentration for half-maximal inhibition (IC50) in [19] worked out at 0.017 µM.
Regarding `C[C@]12CC[C@H]3[C@@H](CCC4=CC(=O)CC[C@@]43C)[C@@H]1CC[C@@H]2O` [TESTOSTERONE], the figures for the IC50 in [6] and in test [20] were 0.034 µM and 0.0384 µM, respectively.
Take `FC(F)(F)C(Cl)Br` (stereo not given) [HALOTHANE]: the IC50 in [21] was determined as 1800 µM; in test [22] it was 14500 µM.
For `O=C(O)Cc1ccccc1Nc1c(Cl)cccc1Cl` [DICLOFENAC], in test [23], the IC50 is 12.9 µM.
With `CCCC[N+]1(CCCC(=O)c2ccc(F)cc2)CCC(O)(c2ccc(Cl)cc2)CC1` (stereo not given), the IC50 in test [24] was 0.17 µM.
Regarding `COCCOC(=O)C1=C(C)NC(C)=C(C(=O)OC/C=C/c2ccccc2)C1c1cccc([N+](=O)[O-])c1` (stereo not given) [CILNIDIPINE], the IC50 in test [25] was found to be 12.7 µM; in test [14], 5.3 µM.

These data come from ChEMBL document CHEMBL3436046, “Predictive model for L-type channel inhibition: multichannel block in QT prolongation risk assessment” (J Appl Toxicol, 2012).
